Test results published in patent US8822542B2, “Isoketal scavengers and mitigation of disorders involving oxidative injury” (Vanderbilt University, priority 2005, dated 2014).
pIC50: −log10 of the molar value. Entries after “also recorded” stand apart in the source; their conditions may differ. One block for each compound: values may come before it.

Experiments:
[1] = Second order rate of pyrrole formation with the model γ-ketoaldehyde 4-oxopentanal; type: biochemical
Method: The present inventors determined the approximate second order rate constants of different amines for pyrrole formation with […], a γ-ketoaldehyde.
These compounds are tested for the rate of pyrrole formation when incubated with the γ-ketoaldehyde, 4-oxopentanal. […] Ehrlich reagent may be used to detect levels of pyrroles.
All rates are shown relative to N-α-acetyl-lysine.

[2] = Oxidation of arachidonic acid in the presence of scavenger and 10 molar excess of lysine; type: biochemical; details: for levels of Lys-lactam adduct formed: compared to vehicle
Source text: The amounts of each of these adducts to the amount of γ KA adduct formed were normalized. […] Because cardiac ion channels are embedded in cellular membranes, the ability to penetrate into membranes is critical.

[3] = test system: HepG2 cell; assay: Cellular viability of HepG2 cells exposed to hydrogen peroxide; type: cell-based
[4] = test system: plasma concentrations of F2-IsoPs; assay: Vitamin E supplementation, plasma F2-IsoPs in subjects with hypercholesterolemia; type: in vivo, human
Method: The use of antioxidants to suppress oxidative injury: An important aspect of antioxidant clinical trials that has not received sufficient attention until recently, is the scientific rational for the choice of a particular antioxidant to test, the dose to test, and the duration of treatment. […] This was a key finding because the literature is abound with studies in which have vitamin E was administered for less than 10 weeks to determine its effects on some pathologic process. […] This is an important finding because many studies of the effects of vitamin E have used doses of 400 I.U./d and observed no benefit.

[5] = test system: progression of AD; details: 2000 I.U./d; cited from earlier work
[6] = test system: patients convalescing from myocardial infarction; details: in vivo; cited from earlier work
[7] = test system: plasma concentrations of F2-IsoPs; assay: Porcine model of global ischemia/reperfusion (cardiac arrest and CPR), plasma F2-IsoPs; type: in vivo; details: 30 mg/kg intravenous, single dose during CPR
Method: The present inventors chose antioxidants to test in the models of AD that we have found effective in suppressing oxidative stress in other animal models of oxidative injury. One model of oxidative injury is the porcine model of global ischemia/reperfusion resulting from induction of cardiac arrest for 3 mins followed by cardiopulmonary resuscitation (CPR). Shown in FIG. 25 are results using this model. As shown, cardiac arrest followed by CPR induced a dramatic increase in plasma concentrations of F2-IsoPs. […] This study involved the administration of a single dose of Tempol. Shown in FIG. 26 is data taken from a report from Ortiz, et. al. in which they assessed the ability of chronic oral administration of TEMPOL (1 mM in the drinking water) to suppress the increase in F2-IsoPs induced by chronic IV infusion of angiotensin II. […] Tempol is one of the antioxidants of the present invention.

[8] = test system: F2-IsoPs in renal vein plasma; details: 1 mM in the drinking water, chronic oral; cited from earlier work
[9] = molecular target: human cardiac Na channel (hH1, or SCN5A) (Homo sapiens, UniProt Q14524); assay: Whole-cell Na current recording, wild-type hH1 expressed in HEK-293 cells; details: HEK-293; t-BHP 1 mM, Iso-K 10 μM, flecainide 1 μM
Chain of human cardiac Na channel (hH1, or SCN5A) (Q14524 whole entry): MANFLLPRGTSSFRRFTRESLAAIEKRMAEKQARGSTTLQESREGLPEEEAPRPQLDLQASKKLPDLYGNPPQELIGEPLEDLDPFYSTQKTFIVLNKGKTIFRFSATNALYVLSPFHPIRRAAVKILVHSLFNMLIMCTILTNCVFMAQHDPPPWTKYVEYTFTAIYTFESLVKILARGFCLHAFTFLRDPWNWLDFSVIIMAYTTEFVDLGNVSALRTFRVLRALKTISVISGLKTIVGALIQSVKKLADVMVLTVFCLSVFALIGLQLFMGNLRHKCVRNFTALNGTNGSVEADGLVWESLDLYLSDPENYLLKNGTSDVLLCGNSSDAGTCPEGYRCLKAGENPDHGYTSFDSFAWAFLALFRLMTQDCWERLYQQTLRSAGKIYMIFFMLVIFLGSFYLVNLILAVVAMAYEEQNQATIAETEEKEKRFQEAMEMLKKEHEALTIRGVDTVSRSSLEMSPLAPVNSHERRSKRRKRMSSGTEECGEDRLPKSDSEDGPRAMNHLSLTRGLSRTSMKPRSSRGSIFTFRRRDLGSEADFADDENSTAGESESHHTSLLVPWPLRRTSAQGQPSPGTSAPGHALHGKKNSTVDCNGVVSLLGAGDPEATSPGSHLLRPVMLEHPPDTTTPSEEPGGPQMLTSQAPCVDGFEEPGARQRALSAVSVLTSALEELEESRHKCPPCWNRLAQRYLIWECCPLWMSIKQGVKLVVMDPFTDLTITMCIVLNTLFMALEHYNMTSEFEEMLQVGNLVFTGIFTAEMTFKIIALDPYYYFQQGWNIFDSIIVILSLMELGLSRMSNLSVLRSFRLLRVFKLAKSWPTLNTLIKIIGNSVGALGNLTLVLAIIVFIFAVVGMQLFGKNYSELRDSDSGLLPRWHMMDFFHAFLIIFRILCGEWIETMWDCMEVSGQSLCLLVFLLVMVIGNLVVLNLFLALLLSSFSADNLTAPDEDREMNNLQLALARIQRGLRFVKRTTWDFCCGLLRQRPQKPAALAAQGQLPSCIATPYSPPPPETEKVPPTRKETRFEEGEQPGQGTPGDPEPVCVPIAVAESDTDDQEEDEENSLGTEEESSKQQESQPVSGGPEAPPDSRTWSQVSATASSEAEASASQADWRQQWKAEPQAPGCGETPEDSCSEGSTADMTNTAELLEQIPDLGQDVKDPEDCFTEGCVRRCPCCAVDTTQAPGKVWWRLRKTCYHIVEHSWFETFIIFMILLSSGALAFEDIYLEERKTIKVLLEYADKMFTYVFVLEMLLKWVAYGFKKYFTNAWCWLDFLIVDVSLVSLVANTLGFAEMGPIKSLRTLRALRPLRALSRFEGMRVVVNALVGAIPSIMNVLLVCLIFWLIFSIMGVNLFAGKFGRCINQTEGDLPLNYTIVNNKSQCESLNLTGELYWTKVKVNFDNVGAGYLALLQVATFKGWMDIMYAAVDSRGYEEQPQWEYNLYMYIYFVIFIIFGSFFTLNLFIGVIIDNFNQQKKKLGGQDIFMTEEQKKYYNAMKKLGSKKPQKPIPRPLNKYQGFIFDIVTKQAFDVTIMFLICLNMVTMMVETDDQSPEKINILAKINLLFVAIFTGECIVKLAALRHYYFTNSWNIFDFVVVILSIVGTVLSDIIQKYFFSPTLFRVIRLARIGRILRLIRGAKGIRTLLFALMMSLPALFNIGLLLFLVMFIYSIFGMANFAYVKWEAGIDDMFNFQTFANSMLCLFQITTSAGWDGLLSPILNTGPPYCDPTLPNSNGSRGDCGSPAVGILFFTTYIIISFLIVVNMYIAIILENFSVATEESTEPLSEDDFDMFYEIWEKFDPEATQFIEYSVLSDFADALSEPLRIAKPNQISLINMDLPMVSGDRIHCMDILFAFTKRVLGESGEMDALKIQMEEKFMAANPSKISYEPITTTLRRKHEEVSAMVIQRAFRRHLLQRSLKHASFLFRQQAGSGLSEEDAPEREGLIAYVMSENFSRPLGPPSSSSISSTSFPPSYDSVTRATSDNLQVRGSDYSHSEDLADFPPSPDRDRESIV

[10] = test system: 20S proteasome; assay: Degradation of adducted ovalbumin by purified 20S proteasome; type: biochemical
[11] = molecular target: bovine serum albumin (Bos taurus, UniProt P02769); assay: Disappearance of free IsoK and HNE during incubation with bovine serum albumin (rate of adduction); type: biochemical; details: after 80 minutes
Chain of bovine serum albumin (P02769 25-607): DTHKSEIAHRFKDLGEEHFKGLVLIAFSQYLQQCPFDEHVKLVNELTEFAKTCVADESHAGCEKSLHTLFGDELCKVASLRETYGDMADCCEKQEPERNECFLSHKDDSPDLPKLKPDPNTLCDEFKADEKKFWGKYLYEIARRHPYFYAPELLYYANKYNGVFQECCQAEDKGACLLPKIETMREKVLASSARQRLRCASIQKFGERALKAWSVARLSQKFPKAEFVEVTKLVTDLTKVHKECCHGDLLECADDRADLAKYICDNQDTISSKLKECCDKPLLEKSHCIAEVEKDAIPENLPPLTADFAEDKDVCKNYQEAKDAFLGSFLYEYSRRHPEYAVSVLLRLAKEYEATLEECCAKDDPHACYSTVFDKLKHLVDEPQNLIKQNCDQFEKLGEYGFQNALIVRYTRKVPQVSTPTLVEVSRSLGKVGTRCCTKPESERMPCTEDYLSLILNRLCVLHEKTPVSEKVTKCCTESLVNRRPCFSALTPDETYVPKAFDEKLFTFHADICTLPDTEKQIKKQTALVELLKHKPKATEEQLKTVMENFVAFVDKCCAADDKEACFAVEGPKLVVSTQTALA
Method: Oxidation of AA in vitro produces both F2-IsoPs and IsoKs in nearly equivalent amounts. However, comparison of the formation of F2-IsoPs and IsoKs in vivo is more complex, because IsoKs rapidly adduct to lysyl residues on proteins. […] In striking contrast, approximately 50% of the HNE still remained in free form after 80 minutes.

[12] = molecular target: ovalbumin (OVA) (Gallus gallus, UniProt P01012); assay: Protein cross-linking after incubation with ovalbumin; type: biochemical; details: 10 molar equivalents, about 4 hours
Chain of ovalbumin (OVA) (P01012 whole entry, species assumed): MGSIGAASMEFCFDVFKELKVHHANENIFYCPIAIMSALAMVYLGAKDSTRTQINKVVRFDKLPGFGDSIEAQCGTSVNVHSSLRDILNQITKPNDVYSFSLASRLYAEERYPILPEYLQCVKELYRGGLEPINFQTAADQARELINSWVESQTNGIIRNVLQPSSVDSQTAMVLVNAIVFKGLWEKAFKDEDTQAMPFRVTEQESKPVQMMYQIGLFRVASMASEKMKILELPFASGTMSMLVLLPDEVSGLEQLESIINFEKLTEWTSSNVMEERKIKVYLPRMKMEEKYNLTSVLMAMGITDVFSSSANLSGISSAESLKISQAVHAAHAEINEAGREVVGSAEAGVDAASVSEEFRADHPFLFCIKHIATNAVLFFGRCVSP
Source text: The above findings explained why repeated attempts in the past to detect free IsoKs during oxidation of biological systems in vitro, e.g. microsomes, and in animal models of oxidant injury in vivo were unsuccessful because they are rapidly sequestered as protein adducts. Therefore, the present inventors undertook to determine the identity of IsoK lysyl adducts as a basis for development of methodology to detect IsoK and NeuroK adducts in biological tissues in their adducted form. […] Reversible Schiff base adducts were also identified. Schiff base adducts are formed rapidly and then decline over time, whereas lactam adducts accumulate slowly over time. Lysyl protein adducts of IsoKs and NeuroKs are analyzed by LC/MS/MS following enzymatic digestion of proteins to individual amino acids. Enzymatic digestion of proteins is necessary because the adducts degrade during acid hydrolysis. However, this analysis is further complicated by the proclivity of IsoKs and NKs to induce protein crosslinking, which is resistant to hydrolysis. […] This is a dramatic example of the differential effects of IsoKs/NKs and HNE on protein adduction and cross-linking.

[13] = test system: proteasome; assay: Hydrolysis of fluorogenic substrate VKM-amc by proteasome containing cell lysates; type: biochemical; details: equimolar adduction of VKM-amc
[14] = test system: mice subjected to ligation of the left anterior coronary artery; assay: Myocardial infarction by coronary ligation in mice; type: in vivo, mouse
Source text: (§1) In a series of experiments, the present inventors have tested the effect of the γ KA scavenger salicylamine (SA) in mice subjected to ligation of the left anterior coronary artery resulting in a myocardial infarction. All experiments were done in blinded fashion regarding the treatment group (SA versus placebo (water)). Mice received drinking water containing either SA (1 g/l) or no drug for three days prior to coronary ligation and for 7 days afterwards.
The present inventors examined the effect of SA treatment on Lys-lactam protein adduct formation. Mouse hearts were harvested 7 days after coronary ligation and the atria and the right ventricular free wall were removed. The remainder of each heart (LV free wall and septum) was then cut into two, roughly equal tissue specimens of ˜50 mg wet weight: The anterior-apical part contained the infarct and the peri-infarct border zone (MI+borderzone), and the posterior-basal part was unaffected (Remote). The tissue content of Lys-lactam protein adducts was quantified using our LC MS^2 based analytical technique.

[15] = SA in the drinking water of mice: concentrations and tolerability; type: in vivo, C57BL6 mice
Method: as §1
SA was tested to determine whether it could be used in vivo. 1 g/L or 5 g/L salicylamine was added to the drinking water of C57BL6 mice for 5 days and then harvested plasma and liver from the animals. SA was measured by monitoring absorption at 259 nm after derivatization with 1,1′-thiocarbonyldiimidazole.

[16] = Lipophilicity / penetration into nonpolar environments; type: physicochemical
[17] = test system: transgenic humanized apoE4 mice (hApoE4); assay: Water radial arm maze in transgenic humanized apoE4 mice; type: in vivo, mouse; parameters: dose or concentration left out as unconfirmed; details: water containing SA, six months, tested at 12 months of age
Source text: Starting at six months of age, wild-type (C57) and transgenic humanized apoE4 mice (hApoE4) were given either standard water or water containing […] SA (+SA) as their only source of drinking water. At this time, animals were also switched from standard chow diets to either a sufficient amino acid based diet (suff) or an amino-acid based diet insufficient in choline, methionine, and folate, and enriched in homocysteine (HC). All animals were fed diets and drinking water for six months (to 12 months of age) prior to testing. The purpose of the HC diet was to attempt to exacerbate oxidative stress in these animals. Because breeding and behavioral testing is extremely time consuming, it was not possible to have sufficient animals for each group in a single cohort and still perform adequate behavioral testing. Therefore two separate cohorts of animals (A & B) were raised and tested about two month apart. […]
The water radial arm maze test requires a mouse to find a hidden platform placed in one of six maze arms. […] If the mouse enters an arm without the platform, an error is scored and the mouse is dragged by the tail back to the start arm and released. […] If a mouse swims in the central area for 12 sec without picking an arm, an error is also scored and the animal is dragged back to the start arm and released. […]

[18] = molecular target: 20S proteasome (Homo sapiens, UniProt P28074); assay: Inhibition of 20S proteasome chymotrypsin-like activity (LLVY-amc hydrolysis); type: biochemical

Compound: CC(=O)N[C@@H](CCCCN)C(=O)O [N^αacetyllysine]
approximate second order rate constants for pyrrole formation [1]: 7e+07 M⁻¹ s⁻¹

Compound: pentylpyridoxamine [PPM]
scavenging γ KAs [1]: very good at scavenging
levels of F2-IsoP formed [2]: None of the three scavengers reduced
selectivity for γ KA products over other lipid peroxidation products [2]: relatively selectively; also recorded: most selective
levels of Lys-lactam adduct formed [2]: markedly reduced
protection of cellular viability [3]: slightly less protection

Compound: vitamin E
reduction of F2-IsoP levels ([4]; 800 I.U./d, 18 weeks): about 10%
maximum suppression of plasma F2-IsoPs ([4]; 3200 I.U./d, 18 weeks): 49%
effect on F2-IsoP levels ([4]; doses below 800 I.U./d, 18 weeks): no significant effect
supplementation required to reach the plateau in maximum suppression of plasma F2-IsoPs ([4]; human, in vivo): sixteen
effect to slow the progression of the disease [5]: modest effect

Compound: NCc1ccc(O)cc1 [4-SA, 4-salicylamine]
scavenging γ KAs [1]: inactive

Compound: COc1ccc(C(=O)Nc2ccccc2CCC2CCCCN2C)cc1 (centres unmarked) [encainide]
mortality increase [6]: three-fold

Compound: CC1(C)CC(O)CC(C)(C)N1[O] [Tempol]
increase in plasma levels of F2-IsoPs [7]: completely ablated this increase
increase in levels of F2-IsoPs in renal vein plasma [8]: completely prevented the increase

Compound: F2-isoprostane
V1/2 voltage-dependence of inactivation (availability) [9]: −91.4±1.8 mV

Compound: IsoK(10)-OVA: ovalbumin adducted with ten molar equivalents of E2-IsoK
degradation by purified 20S proteasome [10]: completely blocked its degradation

Compound: CCCCCC(O)/C=C/C=O (centres unmarked) [HNE, 4-hydroxynonenal]
remained in free form [11]: approximately 50%
cross-linking of ovalbumin [12]: no cross-linking was observed
hydrolysis of the adducted peptide by proteasome containing cell lysates [13]: no effect on hydrolysis
V1/2 voltage-dependence of inactivation (availability) [9]: −83.7±2.1 mV

Compound: NCc1ccccc1O [SA, salicylamine]
scavenging γ KAs [1]: very good at scavenging
systolic function, fractional LV shortening (FS) by echocardiography ([14]; 1 g/l in drinking water, 7 days post MI): improved systolic function
Lys-lactam protein adducts in infarct and peri-infarct borderzone ([14]; 7 days after coronary ligation): appears to prevent the adduct formation
infarct size ([14]; hearts harvested 7 days after coronary ligation): significantly reduced infarct size
survival after MI ([14]; p=0.1): trend towards increased survival
tolerability of the dosing regimen ([15]; 1 g/l in drinking water): well tolerated
oral bioavailability ([15]; mouse, in vivo, po): orally bioavailable
levels of F2-IsoP formed [2]: None of the three scavengers reduced
selectivity for γ KA products over other lipid peroxidation products [2]: relatively selectively
levels of Lys-lactam adduct formed [2]: markedly reduced
lipophilicity / penetration into nonpolar environments [16]: readily dissolve into ethyl acetate; also recorded: most lipophilic scavenger
protection of cellular viability [3]: best protection
memory performance (latency, Z-score) [17]: significantly improved the performance
memory performance (latency, Z-score) ([17]; listed as salicylamine): improves memory

Compound: IsoK(1)-OVA: ovalbumin adducted with equimolar E2-IsoK
degradation by purified 20S proteasome [10]: nearly in half

Compound: NCCO [2-aminoethanol]
approximate second order rate constants for pyrrole formation [1]: 3.1e+08 M⁻¹ s⁻¹

pIC50 [18]: 5.89
Compound: IsoK-Aβ1-40: Aβ1-40 adducted with E2-IsoK

Compound: NCc1ccncc1 [4-picolinylamine]
approximate second order rate constants for pyrrole formation [1]: 0.0011 M⁻¹ s⁻¹

Compound: Cc1ncc(CO)c(CN)c1O [PM, pyridoxamine]
lipophilicity / penetration into nonpolar environments [16]: quite hydrophilic; also recorded: poorly penetrates into nonpolar environments
protection of cellular viability [3]: no significant protection
